The values below come from patent US6300350A, “Treatment of emphysema using RARy selective retinoid agonists” (priority 2000, dated 2001).

The target of test [1] is T1, RARγ (Homo sapiens, UniProt P13631).
T1 sequence (P13631 1-454): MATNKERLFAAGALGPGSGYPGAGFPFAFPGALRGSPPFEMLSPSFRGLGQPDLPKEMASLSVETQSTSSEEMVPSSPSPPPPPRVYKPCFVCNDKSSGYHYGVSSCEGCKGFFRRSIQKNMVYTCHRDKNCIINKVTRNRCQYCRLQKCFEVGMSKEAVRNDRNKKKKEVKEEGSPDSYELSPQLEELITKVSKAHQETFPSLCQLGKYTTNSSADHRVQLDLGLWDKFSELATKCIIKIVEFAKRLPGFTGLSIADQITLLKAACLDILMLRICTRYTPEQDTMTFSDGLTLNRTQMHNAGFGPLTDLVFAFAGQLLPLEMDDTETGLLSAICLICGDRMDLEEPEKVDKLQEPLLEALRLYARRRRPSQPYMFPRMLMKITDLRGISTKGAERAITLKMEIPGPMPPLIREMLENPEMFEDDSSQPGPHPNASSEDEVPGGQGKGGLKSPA
Nature of the test: Transactivation, RARγ. Format: cell-based. The text has this:
(§1) As used herein, the term "transactivation" refers to the ability of a retinoid to activate the transcription of a gene where the gene transcription is initiated by the binding of a ligand to the particular retinoic acid receptor being tested, i.e., RARα, RARβ, or RARγ. Determining the ability of a compound to transactivate a retinoic acid receptor may be performed by methods known to those of skill in the art. […] Apfel etal., Proc. Nat.

Test [2] has as its target T2, RARα (Homo sapiens, UniProt P10276).
T2 sequence (P10276 1-462): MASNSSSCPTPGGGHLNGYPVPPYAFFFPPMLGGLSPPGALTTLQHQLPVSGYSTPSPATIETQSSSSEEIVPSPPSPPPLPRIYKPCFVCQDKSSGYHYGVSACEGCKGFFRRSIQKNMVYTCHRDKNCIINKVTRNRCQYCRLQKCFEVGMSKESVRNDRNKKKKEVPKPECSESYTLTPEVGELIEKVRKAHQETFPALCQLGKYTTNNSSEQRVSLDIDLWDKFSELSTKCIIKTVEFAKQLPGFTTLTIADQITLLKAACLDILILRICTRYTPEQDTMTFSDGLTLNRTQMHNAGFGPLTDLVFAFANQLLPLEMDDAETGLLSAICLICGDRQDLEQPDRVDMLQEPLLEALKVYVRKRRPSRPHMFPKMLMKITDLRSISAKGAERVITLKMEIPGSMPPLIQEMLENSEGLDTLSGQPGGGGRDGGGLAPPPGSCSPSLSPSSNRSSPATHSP
Nature of the test: Binding, RARα (ligand binding assay). The following applies: Table II. The text has this:
(§2) The RARγ agonist selectivity of a compound can be determined by routine ligand binding assays known to one of skill in the art such as described in C. Apfel et al., Proc. Nat.

In test [3] the target is T3, RARβ (Homo sapiens, UniProt P10826).
T3 sequence (P10826 1-455): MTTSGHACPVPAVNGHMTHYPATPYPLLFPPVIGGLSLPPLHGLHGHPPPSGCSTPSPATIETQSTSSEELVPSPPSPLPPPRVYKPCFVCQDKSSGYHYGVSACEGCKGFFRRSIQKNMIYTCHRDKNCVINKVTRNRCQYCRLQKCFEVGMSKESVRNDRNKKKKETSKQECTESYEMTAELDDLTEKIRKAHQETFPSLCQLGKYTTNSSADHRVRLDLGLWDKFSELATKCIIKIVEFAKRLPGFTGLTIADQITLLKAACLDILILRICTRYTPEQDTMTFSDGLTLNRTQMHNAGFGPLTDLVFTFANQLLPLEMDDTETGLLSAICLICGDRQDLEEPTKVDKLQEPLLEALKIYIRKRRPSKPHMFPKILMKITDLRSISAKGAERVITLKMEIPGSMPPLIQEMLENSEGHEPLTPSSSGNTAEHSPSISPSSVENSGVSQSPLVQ
Nature of the test: Binding, RARβ (ligand binding assay). The following applies: Table II.
Source text: as §2

Another test has as its system tropoelastin gene. Nature of the test: RAR transactivation of steady state tropoelastin gene in normal human lung fibroblasts (CCD-16Lu). Format: cell-based. The protocol:
Transactivation of the tropoelastin gene in normal human lung fibroblasts (CCD-16Lu) was performed as described below. Cells were grown to confluence at which time fresh media +/- ATRA or selective retiniod was added to the basal culture. ATRA and/or selective retiniods were used at a concentration of 1×10^-7 M. The cell layer was lysed using a guanidinium-based buffer (TRIZOL/Sigma) for RNA extraction and analysis. Amplification of tropoelastin and GAPDH RNA was performed by standard quantitative RT-PCR (TAQMAN, Perken/Elmer) using appropriate selective primers. Tropo-elastin gene expression was normalized to the expression of standard house-keeping gene (GAPDH).
Samples were run in triplicate.

Test [4] has as its target T2, RARα. Nature of the test: Transactivation, RARα. Format: cell-based. The following applies: Table II.
Source text: as §1

Test [5] deals with T3, RARβ. Nature of the test: Transactivation, RARβ. Format: cell-based. As to conditions: Table II.
Source text: as §1

The subject of another test is experimental emphysema. Briefly: Alveolar repair in rat experimental emphysema, oral dosing. Format: in vivo, rats. The following applies: 1 mg/kg/PO daily for two weeks. On the procedure: Three (3) weeks post injury animals were treated with vehicle (Capmul solution) or retinoids prepared in Capmul and dosed orally at 1, 3, and 10 mg/kg body weight. Animals were treated for 14 days prior to termination of study.
Dosage was at 1 mg/kg/PO daily for two weeks.

The next test has as its system elastase damaged rats. Nature of the test: Pulmonary gas exchange in elastase damaged rats. The test is classed as in vivo. The protocol: Pulmonary and arterial blood gases were determined in elastase damaged rats±retinoid treatment prior to termination of study. Rats were placed under deep anesthesia using pentobarbital (50 mg/kg, i.p. and a tracheal cannula (PE 240) was inserted. The rats were artificially ventilated (f=90, TV=approx 0.5 ml/100 g BW) using a small animal respiratory pump (Harvard). For each rat, the pump parameters were adjusted to establish an arterial CO2 level for the pulmonary artery (PCO2) of 30-35 torr. Arterial blood samples (approx 0.2 ml) were taken from the abdominal aorta (AO2) and immediately analyzed by pHOx blood gas. Data are presented as percent (%) recovery relative to elastase +vehicle treated rats.

In test [6] the target is T1, RARγ. Nature of the test: Binding, RARγ (ligand binding assay).
Source text: as §2

Each structure is given as a SMILES string.

In the case of `CCCCCCc1cc2c(cc1/C=C/c1ccc(C(=O)O)cc1)C(C)(C)CCC2(C)C` [RAR Agonist 3], the EC50 at RARγ [1] (Table II) turned out to be 15 nM; on RARγ [1] (Table III), 15 nM; at RARα [4] it was 1000 nM; at RARβ [5], 88 nM. Besides, the IC50 on RARα [2] was determined as 2700 nM; at RARβ [3] it was 3000 nM; at RARγ [6] (Table II), 210 nM; on RARγ [6] (Table III), 210 nM. Also, in the test on tropoelastin gene (CCD-16Lu, 1×10^-7 M, RT-PCR, triplicate, untreated control 30.90), the “Tropo-elastin Expression” value is reported as 68.58 (Elastin/GAPDH) × 10^5. The “tropoelastin gene induction (in words)” value in the test with tropoelastin gene (human lung fibroblasts, compared to the control) is “markedly induces tropoelastin gene induction”. Moreover, in the test on experimental emphysema, the “% Repair” value is reported as 73.7%. Besides, in the test with elastase damaged rats (0.01 mg/kg), the “PCO2, recovery relative to elastase + vehicle treated rats” value turned out to be 84.6%. The “PO2, recovery relative to elastase + vehicle treated rats” value with elastase damaged rats (0.01 mg/kg) is recorded as 49.8%. In addition, the “AO2, recovery relative to elastase + vehicle treated rats” value with elastase damaged rats (abdominal aorta, 0.01 mg/kg) turned out to be 100%. Besides, the “gas exchange (in words)” value with elastase damaged rats (elastase-damaged rats) was “more effective and more potent than the pan agonist (ATRA)”.
